The values that follow come from US8883965B2, “Compounds” (Ferring B.V., priority 2006, dated 2014).

In this test the target is T1, hV1a receptor (Homo sapiens, UniProt P37288).
T1 construct: expressed in transfected cells; host or cells: HEK-293
Put plainly: In vitro receptor assay: transcriptional reporter (luciferase) assay of agonist activity in HEK-293 cells transiently transfected with hV1a receptor. The class given is cell-based. To be noted: hV1a receptor in HEK-293 cells, 5 hours exposure, geometric mean of at least three independent experiments, nanomol/L, read-out: EC50 (median effective concentration). As to the method: Agonist activity of compounds on the hV1a receptor was determined in a transcriptional reporter assay by transiently transfecting a hV1a receptor expression DNA into HEK-293 cells in concert with a reporter DNA containing intracellular calcium responsive promoter elements regulating expression of firefly luciferase. See Boss, V., Talpade, D. J., Murphy, T. J. J. Biol. Chem. 1996, May 3; 271(18), 10429-10432 for further guidance on this assay.
The EC50 value given is the geometric mean expressed in nanomol/L (nM).

Positions of bridges follow the written chain, without caps; N, C: chain ends. Non-standard residues stand in square brackets, D forms with d. Residues, ends and D or L forms follow the SMILES beside them. Ala(cPent) = N[C@@H](CC1CCCC1)C(=O)O; Orn(iPr) = CC(C)NCCC[C@H](N)C(=O)O; Cha = N[C@@H](CC1CCCCC1)C(=O)O; Orn = NCCC[C@H](N)C(=O)O; Dab = NCC[C@H](N)C(=O)O; Ac4c = NC1(C(=O)O)CCC1

T1 sequence (P37288 whole entry): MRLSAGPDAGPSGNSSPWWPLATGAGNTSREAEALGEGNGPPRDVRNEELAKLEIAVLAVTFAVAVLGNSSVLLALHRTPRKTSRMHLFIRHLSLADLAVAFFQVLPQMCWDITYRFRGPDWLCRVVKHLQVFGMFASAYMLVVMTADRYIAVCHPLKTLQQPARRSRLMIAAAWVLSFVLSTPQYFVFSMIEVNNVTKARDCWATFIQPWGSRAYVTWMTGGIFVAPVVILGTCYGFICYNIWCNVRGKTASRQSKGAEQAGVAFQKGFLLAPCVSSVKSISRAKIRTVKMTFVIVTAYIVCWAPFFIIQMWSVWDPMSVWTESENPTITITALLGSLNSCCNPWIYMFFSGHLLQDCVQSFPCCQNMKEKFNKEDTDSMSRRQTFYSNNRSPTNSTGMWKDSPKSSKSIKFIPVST

Consider `CC[C@H](C)[C@@H]1NC(=O)[C@H](CC2CCCCC2)NC(=O)[C@@H](N)CSSC[C@@H](C(=O)N2CCC[C@H]2C(=O)N[C@@H](CCN)C(=O)NCC(N)=O)NC(=O)[C@H](CC(N)=O)NC(=O)[C@H](CCC(N)=O)NC1=O` [compound 1] (H-C[Cha]IQNCP[Dab]G-NH2; disulfide 1-6; N-terminus and C-terminus assumed), for which the EC50 was found to be 0.27 nM. The figure for `CC[C@H](C)[C@@H]1NC(=O)[C@H](CC2CCCC2)NC(=O)[C@@H](N)CSSC[C@@H](C(=O)N2CCC[C@H]2C(=O)N[C@@H](CCN)C(=O)NCC(N)=O)NC(=O)[C@H](CC(N)=O)NC(=O)[C@H](CCC(N)=O)NC1=O` [compound 2] (H-C[Ala(cPent)]IQNCP[Dab]G-NH2; disulfide 1-6) is 0.8 nM; for `CC[C@H](C)[C@@H]1NC(=O)C2(CCC2)NC(=O)[C@@H](N)CSSC[C@@H](C(=O)N2CCC[C@H]2C(=O)N[C@@H](CCN)C(=O)NCC(N)=O)NC(=O)[C@H](CC(N)=O)NC(=O)[C@H](CCC(N)=O)NC1=O` [compound 3, [AcBuc^2, Dbu^8]VT] (H-C[Ac4c]IQNCP[Dab]G-NH2; disulfide 1-6) it is 0.94 nM; for `CC[C@H](C)[C@@H]1NC(=O)[C@H](CC2CCCCC2)NC(=O)[C@@H](N)CSSC[C@@H](C(=O)N2CCC[C@H]2C(=O)N[C@@H](CCCNC(C)C)C(=O)NCC(N)=O)NC(=O)[C@H](CC(N)=O)NC(=O)[C@H](CC(N)=O)NC1=O` [compound 4, [Cha^2, Asn^4, Orn(i-Pr)^6]VT] (H-C[Cha]INNCP[Orn(iPr)]G-NH2; disulfide 1-6) it is 0.75 nM.

Take `CC[C@H](C)[C@@H]1NC(=O)[C@H](CC2CCCC2)NC(=O)[C@@H](N)CSSC[C@@H](C(=O)N2CCC[C@H]2C(=O)N[C@@H](CCN)C(=O)NCC(N)=O)NC(=O)[C@H](CC(N)=O)NC(=O)[C@H](CC(N)=O)NC1=O` [compound 10] (H-C[Ala(cPent)]INNCP[Dab]G-NH2; disulfide 1-6): the EC50 worked out at 17.8 nM. Take `CC[C@H](C)[C@@H]1NC(=O)[C@H](CC2CCCCC2)NC(=O)[C@@H](N)CSSC[C@@H](C(=O)N2CCC[C@H]2C(=O)N[C@@H](CCCN)C(=O)NCC(N)=O)NC(=O)[C@H](CC(N)=O)NC(=O)[C@H](CC(N)=O)NC1=O` [compound 11] (H-C[Cha]INNCP[Orn]G-NH2; disulfide 1-6): the EC50 was 9.93 nM. Then `NCCCC[C@H](NC(=O)[C@@H]1CCCN1C(=O)[C@@H]1CSSC[C@H](NC(=O)CNC(=O)CNC(=O)CN)C(=O)N[C@@H](Cc2ccc(O)cc2)C(=O)N[C@@H](Cc2ccccc2)C(=O)N[C@@H](CCC(N)=O)C(=O)N[C@@H](CC(N)=O)C(=O)N1)C(=O)NCC(N)=O` [terlipressin, reference compound] (H-GGGCYFQNCPKG-NH2; disulfide 4-9), with 82.1 nM.
